Source: patent publication US20060264418A1, “6-(2,2,2-Trifluoroethylamino-7-chloro-2,3,4,5-tetrahydro-1h-benzo[d] azephine as a 5-ht2c receptor agonist” (priority 2003, published 2006)

What was measured:
[1] = test system: male NIH Swiss mice; assay: Marble burying assay (with rotorod); format: in vivo, mouse
Excerpt: Marble burying in mice has been used to model anxiety disorders including obsessive-compulsive disorders (OCD) due to ethological study of the behavior (e.g. Gyertyan I. “Analysis of the marble burying response: Marbles serve to measure digging rather than evoke burying”, Behavioural Pharmacology 6: 24-31, (1995)) and due to the pharmacological effects of clinical standards (c.f., Njung′E K. Handley S L. “Evaluation of marble-burying behavior as a model of anxiety”, Pharmacology, Biochemistry & Behavior. 38: 63-67, (1991)); Borsini F., Podhorna J., and Marazziti, D. “Do animal models of anxiety predict anxiolytic effects of antidepressants?”, Psychopharmacology 163: 121-141, (2002)). Thus, drugs used in the treatment of generalized anxiety in humans (e.g. benzodiazepines) as well as compounds used to treat OCD (e.g. SSRIs like fluoxetine) decrease burying.
House experimentally-naïve male, NIH Swiss mice (Harlan Sprague-Dawley, Indianapolis, Ind.) weighing between 28-35 g in groups of 12 for at least three days prior to testing in a vivarium with 12 hr. light and dark cycles. Conduct experiments during the light cycle in a dimly lit experimental testing room. Dose mice with vehicle or compound and, after a specified pretreatment interval (generally 30 min.), place each mouse individually on a rotorod (Ugo Basile 7650) operating at a speed of 6 revolutions/min. and observe for falling. After 2 min. on the rotorod, place the mice individually in a 17×28×12 cm high plastic tub with 5 mm sawdust shavings on the floor that are covered with 20 blue marbles (1.5 cm diameter) placed in the center. After 30 min., count the number of marbles buried (⅔ covered with sawdust). Assess the compound's effect on marble burying with Dunnett's test and the effect on rotorod performance by Fisher's exact test.
Clinically effective standard compounds suppress marble burying at doses that are devoid of motor-impairing effects as measured on the rotorod. […]

[2] = test system: male NIH Swiss mice; assay: Nestlet shredding; format: in vivo, mouse; settings: 30 min.
Excerpt: Mice naturally will construct nests of material available in their living environment. Since this behavior is obsessive in nature, it has been used to model OCD (Mia Li, Denise Morrow and Jeffrey M. Witkin, “Decreases in nestlet shredding of mice by serotonin uptake inhibitors: comparison with marble burying”, Psychopharmacology, submitted Jul. 14, 2003). House experimentally-naïve male, NIH Swiss mice (Harlan Sprague-Dawley, Indianapolis, Ind.) weighing between 28-35 g in groups of 12 for at least three days prior to testing in a vivarium with a 12 hr. light/dark cycle. Conduct experiments during the light cycle in an experimental room with normal overhead fluorescent lighting. Dose mice with vehicle or test compound and after a specified pretreatment interval (generally 30 min.), place the mice individually in a 17×28×12 cm high plastic tub with about 5 mm sawdust shavings on the floor along with a pre-weighed multi-ply gauze pad (51 mm square). After 30 min., weigh the remainder of the gauze pad not removed by the mouse. Determine the weight of the gauze used for nestlet construction by subtraction. Compare the results for test compound treated mice to the results for vehicle control treated mice with Dunnett's test.
Clinically effective OCD treatment standard compounds suppress nestlet shredding at doses that are devoid of motor-impairing effects as measured by the rotorod test. […]

Q: For `FC(F)(F)CNc1c(Cl)ccc2c1CCNCC2.O=C(O)CCC(=O)O` [Example 2, 7-Chloro-6-(2,2,2-trifluoroethylamino)-2,3,4,5-tetrahydro-1H-benzo[d]azepine Succinic Acid Salt], which “reduction of burying behavior with co-administration of the 5-HT2C antagonist” value [1] is on record?
A: blocked

Q: And the “marble burying behavior (relative to rotorod performance)” value ([1]; 30 min. burying session)?
A: reduce burying behavior

Q: What about the “nestlet shredding (relative to motor effects, rotorod test)” value [2] of the same compound?
A: suppress nestlet shredding at doses that were devoid of motor-impairing effects
